According to patent US5795890A, “Sulfonamide derivatives” (ONO Pharmaceutical Co., Ltd., priority 1995, dated 1998):
Where a name gives a salt, the structure may show the parent alone.

Experiments:
[1] = biological target: T1, human polymorphonuclear elastase (HSE) (Homo sapiens, UniProt P08246); assay: Inhibitory effects on human polymorphonuclear elastase; assay type: biochemical; conditions: substrate Meo-Suc-Ala-Ala-Pro-Val-pNA; HEPES pH 8.0; preincubation 37° C. 20 min, incubation 5 min
T1 sequence (P08246 30-267): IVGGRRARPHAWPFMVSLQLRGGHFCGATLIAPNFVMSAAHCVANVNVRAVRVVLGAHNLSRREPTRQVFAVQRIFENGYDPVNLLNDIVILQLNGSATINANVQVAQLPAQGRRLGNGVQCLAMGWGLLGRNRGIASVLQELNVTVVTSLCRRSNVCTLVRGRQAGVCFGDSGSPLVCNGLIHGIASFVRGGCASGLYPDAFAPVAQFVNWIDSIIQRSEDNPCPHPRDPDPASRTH
Procedure: (1) Inhibitory effects on human polymorphonuclear elastase
A mixture with 0.5 ml of 0.2 mM HEPES buffer (pH 8.0), 0.2 ml of 2.5M NaCl, 0.1 ml of 1% polyethyleneglycol 6000, 0.13 ml of distilled water, test compound dissolved in 0.01 ml of dimethylsulfoxide (DMSO) and 0.05 ml of 0.8 Unit/ml human polymorphonuclearelastase (HSE) was preincubated at 37° C. for 20 min. 5 mM of Meo-Suc-Ala-Ala-Pro-Val-pNA (DMSO solution, 0.01 ml) was then added to the above mixture and was incubated at 37° C. for 5 min. The reaction was terminated by 0.1 ml of 50% acetic acid and the p-nitroanilide (pNA) released was measured spectrophotometrically at […]. Percent inhibition of a compound was calculated by the following equation.
Inhibition (%)=1-{derlat OD(test-blank)/deltaOD(control-blank)}×100

[2] = system: human polymorphonuclear elastase-induced lung hemorrhage; assay: Inhibitory effects on human polymorphonuclear elastase-induced lung hemorrhage in hamster; assay type: in vivo, Syrian hamster; conditions: oral, 60 min before intratracheal HSE 10 U/0.1 ml, blood in BALF; for inhibition at 500 mg/kg (%): 5 Syrian hamsters per group; for ED50: Homo sapiens, Syrian hamsters
Procedure: (2) Inhibitory effects on human polymorphonuclear elastase-induced lung hemorrhage in hamster
A test compound suspended in 0.5% Carboxymethylcellulose or 80% Polyethyleneglycol, 400 or 2% Tween 80 was administered orally to a group of 5 Syrian hamsters. At 60 min after the administration, 10 U/0.1 ml of HSE was injected intratracheally via surgically exposed trachea under pentobarbital anesthesia (60 mg/kg, i.p.) to induce lung injury. At 60 min after the injection, hamsters were bled to sacrifice and subjected to bronchoalveolar lavage with 2.5 ml of saline and recovered lavage solution (BALF). The recovered BALF (0.5 ml) was diluted by 4 times with 2% aqueous solution sodium carbonate and sonicated for 10 sec. The lavage fluid was further diluted by 2.5 times with 2% aqueous solution sodium carbonate and the amount of blood in BALF was calculated from absorbance at 414 nm using standard curve.

| IC50 [1] [nM] | SMILES | inhibition at 500 mg/kg (%) [2] [%] | ED50 [2] [mg/kg] |
| --- | --- | --- | --- |
| 13 | CCC(C(=O)Oc1ccc(S(=O)(=O)n2c(C(=O)O)cc3cc(OC)c(OC)cc32)cc1C)c1ccc(N2CCCC2)cc1 (racemic) [2(42), 4-(2-carboxy-5,6-dimethoxyindol-1-ylsulfonyl)-2-methylphenyl 2RS-(4-(pyrrolidin-1-yl)phenyl)butanoic acid ester] | 67 |  |
| 6.8 | CCC(C(=O)Oc1ccc(S(=O)(=O)N2c3ccccc3CC2C(=O)O)cc1)c1ccccc1OC (racemic) [2(62), 4-(2RS-carboxyindolin-1-ylsulfonyl)phenyl 2RS-(2-methoxyphenyl)butanoic acid ester] |  |  |
| 11 | CCC(C(=O)Oc1ccc(S(=O)(=O)n2c(C(=O)O)cc3ccccc32)cc1C)c1ccc(C)cc1 (racemic) [2(69), 4-(2-carboxyindol-1-ylsulfonyl)-2-methylphenyl 2RS-(4-methylphenyl)butanoicacid ester] | 83 |  |
| 9.7 | CCC(C(=O)Oc1ccc(S(=O)(=O)NC23CC4CC(C2)CC(C(=O)O)(C4)C3)cc1)c1ccc(N2CCCC2)cc1 (racemic) [2(111), 4-(N-3-carboxyadamantan-1-ylsulfamoyl)phenyl 2RS-(4-(pyrrolidin-1-yl)phenyl)butanoic acid ester] |  |  |
| 23 | CCC(C(=O)Oc1ccc(S(=O)(=O)Nc2ccccc2C(=O)NCC(=O)O)cc1)c1ccc2c(c1)OCO2 (racemic) [2(120), 4-(N-2-(N'-carboxymethylcarbamoyl)phenylsulfamoyl)phenyl 2RS-(1,3-benzodioxol-5-yl)butanoic acid ester] |  |  |
| 8 | CCC(C(=O)Oc1ccc(S(=O)(=O)Nc2ccccc2C(=O)NCC(=O)O)cc1)c1ccc(OC)c(OC)c1 (racemic) [2(157), 4-(N-2-(N'-carboxymethylcarbamoyl)phenylsulfamoyl)phenyl 2RS-(3,4-dimethoxyphenyl)butanoic acid ester] |  |  |
| 14 | CCC(C(=O)Oc1ccc(S(=O)(=O)Nc2ccccc2C(=O)NCC(=O)O)cc1)c1ccc(C)cc1 (racemic) [2(173), 4-(N-2-(N'-carboxymethylcarbamoyl)phenylsulfamoyl)phenyl 2RS-(4-methylphenyl)butanoic acid ester] |  |  |
| 10 | CCC(C(=O)Oc1ccc(S(=O)(=O)Nc2ccccc2C(=O)NCC(=O)O)cc1)c1ccc(N(C)C)cc1 (racemic) [2(197), 4-(N-2-(N'-carboxymethylcarbamoyl)phenylsulfamoyl)phenyl 2RS-(4-(N,N-dimethylamino)phenyl)butanoic acid ester.hydrochloride] |  |  |
| 17 | CCC(C(=O)Oc1ccc(S(=O)(=O)N2CCOCC2)cc1)c1ccc(N2CCCC2)cc1 (racemic) [Example 1(16), 4-(morpholin-4-ylsulfonyl)phenyl 2RS-(4-(pyrrolidin-1-yl)phenyl)butanoic acid ester] |  |  |
| 19 | CCOC(=O)C(CN1CCOCC1)NS(=O)(=O)c1ccc(OC(=O)C(CC)c2ccc(N3CCCC3)cc2)cc1 (racemic) [Example 1(40), 4-(N-1RS-(ethoxycarbonyl)-2-(morpholin-4-yl)ethylsulfamoyl)phenyl 2RS-(4-(pyrrolidin-1-yl)phenyl)butanoic acid ester] |  |  |
| 14 | CCC(C(=O)Oc1ccc(S(=O)(=O)NCC(N)=O)cc1)c1ccc(N2CCCC2)cc1 (racemic) [Example 1(56), 4-(N-(carbamoylmethyl)sulfamoyl)phenyl 2RS-(4-(pyrrolidin-1-yl)phenyl)butanoic acid ester] |  |  |
|  | CCC(C(=O)Oc1ccc(S(=O)(=O)NCC(O)CO)cc1C)c1ccc(C)cc1 (racemic) [Example 1(68), 4-(N-2RS,3-dihydroxypropylsulfamoyl)-2-methylphenyl 2RS-(4-methylphenyl)butanoic acid ester] | 51 |  |
| 8 | CCC(C(=O)Oc1ccc(S(=O)(=O)NCCc2ccccn2)cc1)c1ccc(N2CCCC2)cc1 (racemic) [Example 1(78), 4-(N-2-(pyridin-2-yl)ethylsulfamoyl)phenyl 2RS-(4-(pyrrolidin-1-yl)phenyl)butanoic acid ester.2hydrochloride] |  |  |
|  | CCC(C(=O)Oc1ccc(S(=O)(=O)NC2CN3CCC2CC3)cc1C)c1ccc(N2CCCC2)cc1 (racemic) [Example 1(90), 4-(N-(quinuclidin-3RS-yl)sulfamoyl)-2-methylphenyl 2RS-(4-(pyrrolidin-1-yl)phenyl)butanoic acid ester] | 65 |  |
| 18 | CCC(C(=O)Oc1ccc(S(=O)(=O)N2CSC[C@H]2C(=O)O)cc1)c1ccc(N2CCCC2)cc1 (stereo partly drawn) [2(77), 4-(4S-carboxyperhydrothiazol-3-ylsulfonyl)phenyl 2RS-(4-(pyrrolidin-1-yl)phenyl)butanoic acid ester.hydrochloride] |  |  |
| 49 | O=C(O)CNC(=O)c1ccccc1NS(=O)(=O)c1ccc(OC(=O)C2(c3ccc([N+](=O)[O-])cc3)CCC2)cc1 [2(179), 4-(N-2-(N'-carboxymethylcarbamoyl)phenylsulfamoyl)phenyl 1-(4-nitrophenyl)cyclobutanecarboxylic acid ester] |  |  |
| 22 | CC[C@H](C(=O)Oc1ccc(S(=O)(=O)N2CCc3cc([N+](=O)[O-])ccc32)cc1C)c1ccc(N2CCCC2)cc1 [Example 1(130), 4-(5-nitroindolin-1-ylsulfonyl)-2-methylphenyl 2S-(4-(pyrrolidin-1-yl)phenyl)butanoic acid ester] |  |  |
| 24 | CC[C@H](C(=O)Oc1ccc(S(=O)(=O)NCCN2CCOCC2)cc1C)c1ccc(N2CCCC2)cc1 [Example 1(139), 4-(2-(morpholin-4-yl)ethylaminosulfonyl)-2-methylphenyl 2S-(4-(pyrrolidin-1-yl)phenyl)butanoic acid ester.2hydrochloride] |  | 192 |
| 12 | CCC(C(=O)Oc1ccc(S(=O)(=O)N2CCC[C@H]2C(=O)O)cc1)c1ccc(N2CCCC2)cc1 (stereo partly drawn) [Example 2(1), 4-(2S-carboxypyrrolidin-1-ylsulfonyl)phenyl 2RS-(4-(pyrrolidin-1-yl)phenyl)butanoic acid ester.hydrochloride] |  |  |
| 12 | CCc1cc(S(=O)(=O)N2CCNCC2)ccc1OC(=O)[C@@H](CC)c1ccc(N2CCCC2)cc1 [Example 2(274), 4-(piperazin-4-ylsulfonyl)-2-ethylphenyl 2S-(4-(pyrrolidin-1-yl)phenyl)butanoic acid ester.2hydrochloride] |  | 132 |
| 9.3 | CC[C@H](C(=O)Oc1ccc(S(=O)(=O)N2CCNCC2)cc1C)c1ccc(N2CCCC2)cc1 [Example 2(276), 4-(piperazin-4-ylsulfonyl)-2-methylphenyl 2S-(4-(pyrrolidin-1-yl)phenyl)butanoic acid ester.2hydrochloride] |  | 73 |
| 55 | CCC(C(=O)Oc1ccc(S(=O)(=O)N2CCC[C@H]2C(=O)O)cc1C)c1ccc(N2CCCC2)cc1 (stereo partly drawn) [Example 2, 4-(2S-carboxypyrrolidin-1-ylsulfonyl)-2-methylphenyl 2RS-(4-(pyrrolidin-1-yl)phenyl)butanoic acid ester.hydrochloride] | 81 |  |
